Blank lines part the entries; values can stand above or below the molecule they belong to. Active and inactive are the calls of the source. No cut-off for these calls is given here.
Legend:
[1] = biological target: T1, AMP-activated protein kinase, AMPK (Homo sapiens) (UniProt P54646+O43741+P54619+Q9UGJ0+Q9Y478+Q13131+Q9UGI9); experiment: Activation of AMPK in human Huh-7 cells assessed as increase in AMPK phosphorylation at Thr172 residue at 10 uM measured after 12 hrs by Western blot analysis; assay type: cell-based; details: filed as activator
[2] = biological target: T1, AMP-activated protein kinase, AMPK (Homo sapiens); experiment: Activation of AMPK in human Huh-7 cells assessed as increase in AMPK phosphorylation at Thr172 measured upto 12 hrs by Western blot analysis; assay type: cell-based; details: filed as activator, dose microM <=20, time hrs <=12
[3] = biological target: T1, AMP-activated protein kinase, AMPK (Homo sapiens); experiment: Activation of AMPK in human HepG2 cells assessed as increase in AMPK phosphorylation at Thr172 residue at 10 uM measured by Western blot analysis; assay type: cell-based; details: filed as activator, time hrs <=12, TDE = time-dependent effect
THP-1 [4] = experiment: Cytotoxicity against human THP-1 cells assessed as reduction in cell viability at 1 to 10 uM; assay type: cell-based; details: thp-1, 10 µM
[5] = biological target: T1, AMP-activated protein kinase, AMPK (Homo sapiens); experiment: Activation of AMPK in human HepG2 cells assessed as increase in AMPK phosphorylation measured upto 12 hrs by Western blot analysis; assay type: cell-based; details: filed as activator, dose microM <=20, time hrs <=12
[6] = biological target: T1, AMP-activated protein kinase, AMPK (Homo sapiens); experiment: Activation of AMPK in human Huh-7 cells assessed as increase in acetyl-CoA carboxylase phosphorylation at Ser79 measured upto 12 hrs by Western blot analysis; assay type: cell-based; details: filed as activator, dose microM <=20, time hrs <=12
[7] = biological target: T1, AMP-activated protein kinase, AMPK (Homo sapiens); experiment: Activation of AMPK in human HepG2 cells assessed as increase in acetyl-CoA carboxylase phosphorylation at Ser79 measured upto 12 hrs by Western blot analysis; assay type: cell-based; details: filed as activator, dose microM <=20, time hrs <=12
[8] = biological target: T1, AMP-activated protein kinase, AMPK (Homo sapiens); experiment: Activation of AMPK in human HepG2 cells assessed as increase in acetyl-CoA carboxylase phosphorylation at Ser79 residue at 10 uM measured by Western blot analysis; assay type: cell-based; details: filed as activator, time hrs <=12, TDE = time-dependent effect
[9] = biological target: T1, AMP-activated protein kinase, AMPK (Homo sapiens); experiment: Activation of AMPK in human Huh-7 cells assessed as increase in AMPK phosphorylation at Thr172 residue at 10 uM measured by Western blot analysis; assay type: cell-based; details: filed as activator, time hrs <=12, TDE = time-dependent effect
[10] = biological target: T1, AMP-activated protein kinase, AMPK (Homo sapiens); experiment: Activation of AMPK in human Huh-7 cells assessed as increase in acetyl-CoA carboxylase phosphorylation at Ser79 residue at 10 uM measured by Western blot analysis; assay type: cell-based; details: filed as activator, time hrs <=12, TDE = time-dependent effect
THP-1 [11] = experiment: Antiinflammatory activity in human THP-1 cells assessed as reduction in LPS-induced TNF alpha secretion at 10 uM incubated for 12 hrs measured by ELISA; assay type: functional, cell-based
[12] = AUC (0 to t) in BALB/c mouse at 10 mg/kg, po by LC/MS-MS analysis; assay type: ADME, organism-based; parameters: dose 10 mg/kg; details: in vivo
THP-1 [13] = experiment: Antiinflammatory activity in human THP-1 cells assessed as reduction in LPS-induced IL6 secretion at 10 uM incubated for 12 hrs measured by ELISA; assay type: functional, cell-based
[14] = Half life in BALB/c mouse at 10 mg/kg, po by LC/MS-MS analysis; assay type: ADME, organism-based; details: in vivo
[15] = Cmax in BALB/c mouse at 2 mg/kg, iv by LC/MS-MS analysis; assay type: ADME, organism-based; parameters: route intravenous, dose 2 mg/kg; details: in vivo
[16] = AUC (0 to infinity) in BALB/c mouse at 2 mg/kg, iv by LC/MS-MS analysis; assay type: ADME, organism-based; parameters: route intravenous, time infinity, dose 2 mg/kg; details: in vivo
[17] = AUC (0 to t) in BALB/c mouse at 2 mg/kg, iv by LC/MS-MS analysis; assay type: ADME, organism-based; parameters: dose 2 mg/kg; details: in vivo
[18] = Bioavailability in BALB/c mouse at 10 mg/kg, po by LC/MS-MS analysis; assay type: ADME, organism-based; details: in vivo
[19] = Tmax in BALB/c mouse at 10 mg/kg, po by LC/MS-MS analysis; assay type: ADME, organism-based; details: in vivo
[20] = Tmax in BALB/c mouse at 2 mg/kg, iv by LC/MS-MS analysis; assay type: ADME, organism-based; details: in vivo
[21] = Metabolic stability in mouse liver microsomes assessed as half life in presence of NADPH by LC-MS analysis; assay type: ADME, Microsome
[22] = Half life in BALB/c mouse at 2 mg/kg, iv by LC/MS-MS analysis; assay type: ADME, organism-based; details: in vivo
[23] = Cmax in BALB/c mouse at 10 mg/kg, po by LC/MS-MS analysis; assay type: ADME, organism-based; parameters: route oral, dose 10 mg/kg; details: in vivo
[24] = Metabolic stability in human liver microsomes assessed as intrinsic clearance in presence of NADPH by LC-MS analysis; assay type: ADME, Microsome; details: read-out: CLH
[25] = Metabolic stability in human liver microsomes assessed as half life in presence of NADPH by LC-MS analysis; assay type: ADME, Microsome
[26] = AUC (0 to infinity) in BALB/c mouse at 10 mg/kg, po by LC/MS-MS analysis; assay type: ADME, organism-based; parameters: route oral, time infinity, dose 10 mg/kg; details: in vivo
[27] = Metabolic stability in mouse liver microsomes assessed as intrinsic clearance in presence of NADPH by LC-MS analysis; assay type: ADME, Microsome; details: read-out: CLH

Activity [1]: Active
Compound: CC1(C)CC[C@]2(C(=O)O)CC[C@]3(C)C(=CC[C@@H]4[C@@]5(C)CC[C@H](O[C@@H]6O[C@H](C(=O)O)[C@@H](O)[C@H](O)[C@H]6O)C(C)(C)[C@@H]5CC[C@]43C)[C@@H]2C1

Activity [1]: Active
Compound: C[C@H]1[C@H](C)CC[C@]2(C(=O)O[C@@H]3O[C@H](CO[C@@H]4O[C@H](CO)[C@@H](O[C@@H]5O[C@@H](C)[C@H](O)[C@@H](O)[C@H]5O)[C@H](O)[C@H]4O)[C@@H](O)[C@H](O)[C@H]3O)CC[C@]3(C)C(=CC[C@@H]4[C@@]5(C)C[C@@H](O)[C@H](O)[C@@](C)(CO)[C@@H]5CC[C@]43C)[C@H]12

AUC(0-t) [12]: 3000 ng·h/mL | half-life [14]: 68.4 min | Cmax [15]: 3500 ng/mL | AUC(0-inf) [16]: 3300 ng·h/mL | AUC(0-t) [17]: 3220 ng·h/mL | bioavailability [18]: 18.6% | Tmax [19]: 2.67 h | Tmax [20]: 4.8 min | half-life [21]: > 120 min | half-life [22]: 104 min | Cmax [23]: 728 ng/mL | CLint scaled [24]: 38.6 mL/min/kg | half-life [25]: 45 min | AUC(0-inf) [26]: 3080 ng·h/mL
Compound: CC1(C)CC[C@]2(C(=O)O[C@@H]3OC[C@@H](O)[C@H](O)[C@H]3O)CC[C@]3(C)C(=C2C1)CC[C@@H]1[C@@]2(C)CC[C@H](O[C@@H]4OC[C@H](O)[C@H](O)[C@H]4O)C(C)(C)[C@@H]2CC[C@]13C
Activity (THP-1 [11]): Active | Activity (THP-1 [13]): Active | Activity (THP-1 [4]): Non-Toxic

Activity [1]: Active
Compound: CC1(C)[C@@H](O[C@H]2O[C@H](C(=O)O)[C@@H](O)[C@H](O)[C@H]2O[C@@H]2O[C@H](C(=O)O)[C@@H](O)[C@H](O)[C@H]2O)CC[C@]2(C)[C@H]3C(=O)C=C4[C@@H]5C[C@@](C)(C(=O)O)CC[C@]5(C)CC[C@@]4(C)[C@]3(C)CC[C@@H]12

Activity [1]: Active
Compound: C[C@@H]1CC[C@]2(C(=O)O[C@@H]3O[C@H](CO)[C@@H](O)[C@H](O)[C@H]3O)CC[C@]3(C)C(=CC[C@@H]4[C@@]5(C)CC[C@H](O[C@@H]6OC[C@H](O)[C@H](O)[C@H]6O)C(C)(C)[C@@H]5CC[C@]43C)[C@@H]2[C@]1(C)O

Activity [1]: Active
Compound: CC1(C)CC[C@]2(C(=O)O[C@@H]3O[C@H](CO)[C@@H](O)[C@H](O)[C@H]3O)CC[C@]3(C)C(=CC[C@@H]4[C@@]5(C)CC[C@H](O[C@@H]6O[C@H](C(=O)O)[C@@H](O)[C@H](O)[C@H]6O[C@@H]6O[C@H](CO)[C@@H](O)[C@H](O)[C@H]6O)C(C)(C)[C@@H]5CC[C@]43C)[C@@H]2C1

Second part, the molecule before the results:

Compound: C[C@H]1[C@H](C)CC[C@]2(C(=O)O)CC[C@]3(C)C(=CC[C@@H]4[C@@]5(C)CC[C@H](O)C(C)(C)[C@@H]5CC[C@]43C)[C@H]12
Activity [1]: Active

Compound: C[C@H]1[C@H](C)CC[C@]2(C(=O)O[C@@H]3O[C@H](CO[C@@H]4O[C@H](CO)[C@@H](O[C@@H]5O[C@@H](C)[C@H](O)[C@@H](O)[C@H]5O)[C@H](O)[C@H]4O)[C@@H](O)[C@H](O)[C@H]3O)CC[C@]3(C)C(=CC[C@@H]4[C@@]5(C)C[C@@H](O)[C@H](O)[C@@](C)(CO)[C@@H]5[C@H](O)C[C@]43C)[C@H]12
Activity [1]: Active

Compound: CC1(C)CC[C@]2(C(=O)O)CC[C@]3(C)C(=CC[C@@H]4[C@@]5(C)CC[C@H](O)C(C)(C)[C@@H]5CC[C@]43C)[C@@H]2C1
Activity [1]: Active

Compound: CC1(C)CC[C@]2(C(=O)O)CC[C@]3(C)C(=C2C1)CC[C@@H]1[C@@]2(C)CC[C@H](O)C(C)(C)[C@@H]2CC[C@]13C
Activity [2]: Dose-dependent effect | Activity [3]: Tde | Activity (THP-1 [4]): Non-Toxic | Activity [5]: Dose-dependent effect | Activity [6]: Dose-dependent effect | Activity [1]: Active | Activity [7]: Dose-dependent effect | Activity [8]: Tde | Activity [9]: Tde | Activity [10]: Tde

Compound: O=C(c1ccc(F)cc1)C1CCN(CCn2c(=O)[nH]c3ccccc3c2=O)CC1 [KETANSERIN]
half-life [21]: 19.3 min | CLint scaled [24]: 41 mL/min/kg | half-life [25]: 42.4 min | CLint scaled [27]: 283 mL/min/kg

Compound: CC1(C)CC[C@]2(C(=O)O)CC[C@]3(C)C(=CC[C@@H]4[C@@]5(C)CC[C@H](O)[C@@](C)(CO)[C@@H]5CC[C@]43C)[C@@H]2C1
Activity [1]: Active
